Assay [1] has as its target T1, Cyclin-dependent kinase 11A (Homo sapiens) (UniProt Q9UQ88).
T1 sequence (whole entry): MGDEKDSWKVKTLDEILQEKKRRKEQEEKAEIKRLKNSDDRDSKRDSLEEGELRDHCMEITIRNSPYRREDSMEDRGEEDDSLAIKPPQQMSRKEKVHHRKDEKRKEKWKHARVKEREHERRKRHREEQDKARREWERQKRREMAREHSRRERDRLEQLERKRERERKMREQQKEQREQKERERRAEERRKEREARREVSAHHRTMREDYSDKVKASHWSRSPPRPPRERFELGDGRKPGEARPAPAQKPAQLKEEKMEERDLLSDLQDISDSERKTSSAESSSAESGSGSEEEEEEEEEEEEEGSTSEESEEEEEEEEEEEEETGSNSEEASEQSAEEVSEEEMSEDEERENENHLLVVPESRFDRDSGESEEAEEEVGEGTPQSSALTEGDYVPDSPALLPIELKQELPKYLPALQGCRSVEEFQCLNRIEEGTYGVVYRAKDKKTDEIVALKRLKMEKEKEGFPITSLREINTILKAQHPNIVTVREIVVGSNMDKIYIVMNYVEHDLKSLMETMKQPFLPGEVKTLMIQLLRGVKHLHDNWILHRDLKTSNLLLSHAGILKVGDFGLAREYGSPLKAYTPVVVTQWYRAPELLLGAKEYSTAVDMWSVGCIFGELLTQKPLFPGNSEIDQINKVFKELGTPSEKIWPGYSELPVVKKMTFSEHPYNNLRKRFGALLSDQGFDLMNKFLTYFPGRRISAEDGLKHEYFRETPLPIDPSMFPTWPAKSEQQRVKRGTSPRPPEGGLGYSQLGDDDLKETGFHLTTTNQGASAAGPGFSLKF
Kind of assay: Selectivity interaction (ActivX KiNativ screen (ex vivo kinase selectivity in human PBMCs)) EUB0001619a CDK11A. Format: cell-based. The settings on record: PBMC, at 1 µM.

Assay [2] concerns the target T2, Receptor-interacting serine/threonine-protein kinase 4 (Homo sapiens) (UniProt P57078).
T2 sequence (whole entry): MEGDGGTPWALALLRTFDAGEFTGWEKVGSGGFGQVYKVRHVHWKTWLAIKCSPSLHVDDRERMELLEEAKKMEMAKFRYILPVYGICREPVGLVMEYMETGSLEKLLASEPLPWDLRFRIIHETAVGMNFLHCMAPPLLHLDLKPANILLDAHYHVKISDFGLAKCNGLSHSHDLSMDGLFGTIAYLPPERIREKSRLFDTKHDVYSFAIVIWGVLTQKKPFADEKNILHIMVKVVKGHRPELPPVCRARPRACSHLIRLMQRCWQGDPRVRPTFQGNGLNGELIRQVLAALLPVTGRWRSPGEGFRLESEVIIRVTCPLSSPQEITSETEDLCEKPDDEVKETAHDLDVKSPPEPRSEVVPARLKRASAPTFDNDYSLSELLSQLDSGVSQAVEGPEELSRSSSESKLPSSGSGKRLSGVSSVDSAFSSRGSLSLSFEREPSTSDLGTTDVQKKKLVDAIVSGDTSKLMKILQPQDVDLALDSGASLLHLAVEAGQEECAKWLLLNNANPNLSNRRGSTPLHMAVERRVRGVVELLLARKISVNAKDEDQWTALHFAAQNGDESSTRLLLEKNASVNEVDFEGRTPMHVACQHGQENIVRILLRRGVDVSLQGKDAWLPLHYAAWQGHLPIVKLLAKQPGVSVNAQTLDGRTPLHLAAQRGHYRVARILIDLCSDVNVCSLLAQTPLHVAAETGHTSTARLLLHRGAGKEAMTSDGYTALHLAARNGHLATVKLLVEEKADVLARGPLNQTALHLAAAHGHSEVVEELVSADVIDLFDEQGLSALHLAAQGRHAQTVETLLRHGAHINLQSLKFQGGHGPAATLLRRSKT
Kind of assay: Selectivity interaction (KinomeScan (DiscoverX)) EUB0001619a RIPK4. The settings on record: at 1 µM.

The target in another assay is Focal adhesion kinase 1 (Homo sapiens, UniProt Q05397). Description: Selectivity interaction (KinomeScan (DiscoverX)) EUB0000695a PTK2. The conditions noted are these: at 100 nM.
Sequence of Focal adhesion kinase 1 (Q05397 2-1052 limits assumed): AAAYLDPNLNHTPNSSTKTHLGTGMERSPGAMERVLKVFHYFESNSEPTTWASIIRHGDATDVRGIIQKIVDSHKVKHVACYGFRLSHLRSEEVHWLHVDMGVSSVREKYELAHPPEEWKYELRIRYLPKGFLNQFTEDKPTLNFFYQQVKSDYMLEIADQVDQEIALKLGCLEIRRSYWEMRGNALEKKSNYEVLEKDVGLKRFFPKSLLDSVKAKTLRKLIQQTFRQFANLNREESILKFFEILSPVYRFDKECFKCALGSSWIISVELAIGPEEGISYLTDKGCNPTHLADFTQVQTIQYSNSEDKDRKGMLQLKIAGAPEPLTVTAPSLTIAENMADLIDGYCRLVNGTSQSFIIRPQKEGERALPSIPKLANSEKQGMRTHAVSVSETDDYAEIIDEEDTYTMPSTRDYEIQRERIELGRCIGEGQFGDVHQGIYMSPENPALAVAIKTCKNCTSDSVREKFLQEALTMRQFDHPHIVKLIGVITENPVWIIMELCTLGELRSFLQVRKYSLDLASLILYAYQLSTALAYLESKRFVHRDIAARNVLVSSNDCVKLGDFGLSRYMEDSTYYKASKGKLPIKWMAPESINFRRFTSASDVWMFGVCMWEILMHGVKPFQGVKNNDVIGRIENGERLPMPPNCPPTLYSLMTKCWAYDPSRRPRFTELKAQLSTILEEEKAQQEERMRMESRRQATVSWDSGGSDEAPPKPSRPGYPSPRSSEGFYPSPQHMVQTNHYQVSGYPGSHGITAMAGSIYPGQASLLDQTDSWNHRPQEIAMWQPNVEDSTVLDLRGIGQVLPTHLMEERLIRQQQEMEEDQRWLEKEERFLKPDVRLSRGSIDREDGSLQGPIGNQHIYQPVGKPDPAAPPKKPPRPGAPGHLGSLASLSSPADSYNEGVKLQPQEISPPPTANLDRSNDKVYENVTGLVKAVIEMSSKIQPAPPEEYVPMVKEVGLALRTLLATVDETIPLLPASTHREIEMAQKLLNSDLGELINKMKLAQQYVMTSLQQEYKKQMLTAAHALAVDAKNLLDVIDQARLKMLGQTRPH
The target of assay [3] is Myosin-IIIa (Homo sapiens) (UniProt Q8NEV4). The settings on record: at 10 µM.
Sequence of Myosin-IIIa (Homo sapiens) (Q8NEV4 whole entry): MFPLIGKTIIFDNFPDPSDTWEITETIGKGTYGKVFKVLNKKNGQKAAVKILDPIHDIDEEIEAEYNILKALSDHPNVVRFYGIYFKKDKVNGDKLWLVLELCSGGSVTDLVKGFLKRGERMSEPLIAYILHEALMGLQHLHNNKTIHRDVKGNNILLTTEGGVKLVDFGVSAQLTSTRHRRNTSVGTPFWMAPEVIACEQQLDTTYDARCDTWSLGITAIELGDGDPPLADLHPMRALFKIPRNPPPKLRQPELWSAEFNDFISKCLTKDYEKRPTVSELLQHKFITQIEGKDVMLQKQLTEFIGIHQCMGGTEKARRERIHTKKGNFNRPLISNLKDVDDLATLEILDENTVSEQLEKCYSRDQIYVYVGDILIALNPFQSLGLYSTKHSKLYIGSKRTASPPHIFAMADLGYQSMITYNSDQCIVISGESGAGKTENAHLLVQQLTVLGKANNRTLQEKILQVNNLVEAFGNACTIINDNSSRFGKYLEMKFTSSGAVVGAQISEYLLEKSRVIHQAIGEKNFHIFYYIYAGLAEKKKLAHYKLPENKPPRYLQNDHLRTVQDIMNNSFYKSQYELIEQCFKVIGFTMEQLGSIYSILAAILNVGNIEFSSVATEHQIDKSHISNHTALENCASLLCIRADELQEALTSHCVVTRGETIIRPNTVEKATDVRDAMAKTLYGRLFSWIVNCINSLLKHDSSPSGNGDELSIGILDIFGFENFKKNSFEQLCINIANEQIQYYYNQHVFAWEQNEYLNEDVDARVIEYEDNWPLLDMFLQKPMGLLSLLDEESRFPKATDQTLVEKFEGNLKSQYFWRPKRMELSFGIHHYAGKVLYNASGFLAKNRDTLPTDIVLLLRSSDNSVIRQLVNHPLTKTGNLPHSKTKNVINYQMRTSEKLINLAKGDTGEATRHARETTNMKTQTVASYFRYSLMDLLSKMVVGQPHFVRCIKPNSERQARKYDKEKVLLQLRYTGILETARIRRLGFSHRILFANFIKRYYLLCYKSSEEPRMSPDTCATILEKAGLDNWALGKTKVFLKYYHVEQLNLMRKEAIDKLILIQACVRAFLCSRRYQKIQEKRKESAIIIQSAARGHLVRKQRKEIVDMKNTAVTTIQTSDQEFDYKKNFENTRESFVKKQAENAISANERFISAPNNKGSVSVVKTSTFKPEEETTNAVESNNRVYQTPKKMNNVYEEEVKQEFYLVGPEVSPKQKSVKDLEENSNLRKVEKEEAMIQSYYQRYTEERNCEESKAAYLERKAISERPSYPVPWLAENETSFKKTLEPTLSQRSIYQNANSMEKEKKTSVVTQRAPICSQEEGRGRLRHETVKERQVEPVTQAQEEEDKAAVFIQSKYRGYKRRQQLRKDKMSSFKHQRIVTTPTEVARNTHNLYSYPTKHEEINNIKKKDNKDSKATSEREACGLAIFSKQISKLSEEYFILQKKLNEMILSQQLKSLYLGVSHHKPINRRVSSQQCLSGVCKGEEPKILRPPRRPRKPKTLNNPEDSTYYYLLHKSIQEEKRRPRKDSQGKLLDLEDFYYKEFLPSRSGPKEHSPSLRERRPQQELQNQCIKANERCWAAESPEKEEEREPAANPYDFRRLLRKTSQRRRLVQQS
In assay [4] the target is Protein arginine N-methyltransferase 6 (Homo sapiens, UniProt Q96LA8). The conditions noted are these: at 10 µM.
Sequence of Protein arginine N-methyltransferase 6 (Q96LA8 whole entry, looked up): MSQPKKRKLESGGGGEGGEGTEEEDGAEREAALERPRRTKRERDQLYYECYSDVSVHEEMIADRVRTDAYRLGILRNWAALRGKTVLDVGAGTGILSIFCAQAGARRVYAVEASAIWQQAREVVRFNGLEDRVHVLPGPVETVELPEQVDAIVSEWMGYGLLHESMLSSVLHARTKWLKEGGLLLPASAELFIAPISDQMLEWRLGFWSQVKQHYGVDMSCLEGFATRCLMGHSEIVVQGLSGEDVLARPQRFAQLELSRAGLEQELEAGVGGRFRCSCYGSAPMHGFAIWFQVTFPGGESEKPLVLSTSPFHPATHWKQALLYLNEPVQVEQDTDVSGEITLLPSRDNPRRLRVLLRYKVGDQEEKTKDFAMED
The target of assay [5] is Tyrosine-protein kinase Yes (Homo sapiens) (UniProt P07947). Kind of assay: Selectivity interaction (ProQinase) EUB0000171b YES1.
Sequence of Tyrosine-protein kinase Yes (Homo sapiens) (P07947 2-543 limits assumed): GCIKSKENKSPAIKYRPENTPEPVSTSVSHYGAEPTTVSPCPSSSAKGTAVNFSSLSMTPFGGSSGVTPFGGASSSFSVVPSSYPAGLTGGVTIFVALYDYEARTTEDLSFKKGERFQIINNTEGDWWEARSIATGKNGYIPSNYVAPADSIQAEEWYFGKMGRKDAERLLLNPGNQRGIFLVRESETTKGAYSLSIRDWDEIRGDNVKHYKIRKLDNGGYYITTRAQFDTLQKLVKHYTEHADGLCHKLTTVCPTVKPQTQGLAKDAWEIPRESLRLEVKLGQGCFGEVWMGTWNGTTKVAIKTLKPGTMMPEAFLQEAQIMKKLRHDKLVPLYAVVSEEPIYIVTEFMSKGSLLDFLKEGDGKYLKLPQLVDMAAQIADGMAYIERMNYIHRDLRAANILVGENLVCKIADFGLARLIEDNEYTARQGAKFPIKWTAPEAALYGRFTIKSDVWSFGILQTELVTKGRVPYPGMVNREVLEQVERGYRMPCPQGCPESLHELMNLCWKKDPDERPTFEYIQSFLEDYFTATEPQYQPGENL
Assay [6] has as its target MAP kinase-activated protein kinase 2 (Homo sapiens, UniProt P49137). Description: Selectivity interaction (Kinase panel (33PanQinase(R) Activity Assay)) EUB0000877a MAPKAPK2.
In assay [7] the test system is Tyrosine-protein kinase ABL1 (Homo sapiens), P00519 [Q252H]. Description: Selectivity interaction (KinomeScan (DiscoverX)) EUB0000655a ABL1. The settings on record: at 10 µM.
Assay [8] has as its target T3, Calcium/calmodulin-dependent protein kinase type IV (Homo sapiens) (UniProt Q16566).
T3 sequence (whole entry): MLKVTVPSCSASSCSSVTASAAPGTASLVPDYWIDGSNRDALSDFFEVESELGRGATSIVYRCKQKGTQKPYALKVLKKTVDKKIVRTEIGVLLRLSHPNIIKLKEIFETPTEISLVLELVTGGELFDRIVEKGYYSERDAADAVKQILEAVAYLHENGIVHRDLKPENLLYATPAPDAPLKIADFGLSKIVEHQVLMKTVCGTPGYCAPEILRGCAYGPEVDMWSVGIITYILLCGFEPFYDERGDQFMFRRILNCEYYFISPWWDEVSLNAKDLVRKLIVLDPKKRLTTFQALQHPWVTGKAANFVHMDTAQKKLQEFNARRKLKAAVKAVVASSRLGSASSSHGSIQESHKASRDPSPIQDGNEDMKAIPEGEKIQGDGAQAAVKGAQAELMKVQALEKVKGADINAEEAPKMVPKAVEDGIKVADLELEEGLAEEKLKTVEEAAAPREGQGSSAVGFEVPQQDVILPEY
Kind of assay: Selectivity interaction (Kinase panel (DSF assay)) EUB0001558a CAMK4. In general terms: DSF heats the sample and reads unfolding from a dye or from intrinsic fluorescence.

Here are results for eight compounds from ChEMBL document CHEMBL5465560, “Selectivity Literature for EUbOPEN Chemogenomic Library” (2024).

Sequence of MAP kinase-activated protein kinase 2 (P49137 whole entry): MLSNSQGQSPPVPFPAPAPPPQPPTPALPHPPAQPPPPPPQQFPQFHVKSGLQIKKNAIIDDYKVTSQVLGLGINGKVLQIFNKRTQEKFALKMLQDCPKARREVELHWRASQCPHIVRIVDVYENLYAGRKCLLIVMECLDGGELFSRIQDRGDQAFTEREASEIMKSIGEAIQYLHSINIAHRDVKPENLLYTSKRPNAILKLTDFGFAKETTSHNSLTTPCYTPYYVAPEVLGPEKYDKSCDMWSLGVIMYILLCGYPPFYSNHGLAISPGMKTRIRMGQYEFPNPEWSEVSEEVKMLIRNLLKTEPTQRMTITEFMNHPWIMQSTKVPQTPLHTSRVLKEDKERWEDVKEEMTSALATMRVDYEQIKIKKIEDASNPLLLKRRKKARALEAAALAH

For the compound `N#Cc1cccc(-c2c[nH]c3ncnc(N4CCOCC4)c23)c1`, in [1], the % of inhibition was found to be 36%. In addition, in [2], the % of control is 57%.

At Focal adhesion kinase 1, `Cc1cc(F)c(C(=O)Nc2cccc(-c3nncn3C(C)C)n2)cc1-n1cnc(C2CC2)c1` came in with a % of control of 100%.

Turning to `Cc1cc([C@@H](C)Nc2ccccc2C(=O)O)c2nc(N3CCOCC3)cc(=O)n2c1` [AZD-6482], the % of control in assay [3] is 97%.

With `CNCCN1CCC(c2cc(CN(C)C(=O)c3cccc(Oc4ccccc4)c3)ccn2)CC1`, in assay [4], the % activity came out at 42%.

Turning to `C=CC(=O)Nc1cccc(C(=O)Nc2ccc(Nc3cc(-c4[nH]c(SC)nc4C)ccn3)cc2)c1`, the % of control in [5] (at 1 µM) was 89%; in [5] (at 5 µM), 75%.

For `CCC(=O)N1CC[C@H](Nc2ncnc3c2CN(c2cnc(OC)c(C(F)(F)F)c2)CC3)C1` [LENIOLISIB], the IC50 (commonly the concentration that gives 50% inhibition) in assay [6] is above 10 µM.

On to `CN(C)CCOc1ccc(-c2nc(-c3ccncc3)c(-c3ccc4c(c3)CC/C4=N\O)[nH]2)cc1`, for which, in assay [7], the % of control worked out at 3.8%.

For the compound `CC(C)(O)[C@H](F)CN1Cc2cc(NC(=O)c3cnn4cccnc34)c(N3CCOCC3)cc2C1=O`, the dTM in [8] is 1 K.
